Test results from ChEMBL document CHEMBL1132875, “Bicyclic pyridones as potent, efficacious and orally bioavailable thrombin inhibitors” (Bioorg Med Chem Lett, 2000).

Experiments:
[1] = The compound was tested in vitro for its anticoagulant potency (2x APTT) of human plasma; format: functional
[2] = biological target: Serine protease 1 (Homo sapiens, UniProt P07477); experiment: The compound was tested for its ability to inhibit trypsin.
[3] = biological target: Prothrombin (Homo sapiens, UniProt P00734); experiment: The compound was tested for its ability to inhibit thrombin.
[4] = tested on: Rattus norvegicus; experiment: Final plasma concentration when 3 ug/kg/min compound administered intravenously in rat; format: ADME, organism-based; details: in vivo, iv, 0.003 mg/kg
[5] = tested on: Rattus norvegicus; experiment: Compound was tested in vivo for its antithrombotic efficacy in six rats upon intravenous administration of 3 ug/kg/min dose and activity expressed as number of occlusions; format: functional
[6] = Oral absorption kinetics (AUC) was determined after administration of compound orally at 1 mg/kg in dogs; format: ADME, organism-based, Canis lupus familiaris; set-up: dose 1 mg/kg, route oral; details: dog, in vivo
[7] = Maximum time taken for oral absorption was determined after oral administration at 1 mg/kg in dogs; format: ADME, organism-based, Canis lupus familiaris; set-up: dose 1 mg/kg, route oral; details: dog, in vivo
[8] = Cmax in dog plasma after 1mg/kg oral dose; format: ADME, organism-based, Canis lupus familiaris; set-up: dose 1 mg/kg, route oral
[9] = (§1) Half life was determined after oral administration at 1 mg/kg in dogs; format: ADME, organism-based, Canis lupus familiaris; set-up: dose 1 mg/kg, route oral; details: dog, in vivo
[10] = tested on: Rattus norvegicus; experiment: Final plasma concentration when 10 ug/kg/min compound administered intravenously in rat; format: ADME, organism-based; details: in vivo, iv, 0.01 mg/kg
[11] = tested on: Rattus norvegicus; experiment: Compound was tested in vivo for its antithrombotic efficacy in six rats upon intravenous administration of 10 ug/kg/min dose and activity expressed as number of occlusions; format: functional
[12] = tested on: Rattus norvegicus; experiment: Compound was tested in vivo for its antithrombotic efficacy in six rats upon intravenous administration of 10 ug/kg/min dose and activity expressed as number of occlusions
[13] = tested on: Canis familiaris; experiment: as §1; format: ADME, organism-based, Canis lupus familiaris; set-up: dose 1 mg/kg, route oral; details: dog, in vivo

Serine protease 1, sequence (P07477 whole entry): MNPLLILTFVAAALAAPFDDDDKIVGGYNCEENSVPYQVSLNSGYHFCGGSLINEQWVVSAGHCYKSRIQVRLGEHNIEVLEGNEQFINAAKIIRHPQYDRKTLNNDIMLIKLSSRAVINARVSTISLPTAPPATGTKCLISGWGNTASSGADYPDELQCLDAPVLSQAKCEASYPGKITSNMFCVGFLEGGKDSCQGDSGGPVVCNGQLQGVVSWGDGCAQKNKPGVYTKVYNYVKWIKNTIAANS

Ki [2] [nM] | Ki [3] [nM] | Compound | Concentration doubling APTT [1] [nM] | further results
 |  | Cc1nc(N)ccc1CNC(=O)Cn1c(C)cc2c(c1=O)NC(=O)C(CC(C)C)(CC(C)C)C2 | 390 | 
12700 |  | Cc1nc(N)ccc1CNC(=O)Cn1c(C)cc2c(c1=O)NC(=O)[C@H](Cc1ccccc1)C2 | 200 | 
4200 | 1.6 | CC[C@@H]1Cc2cc(C)n(CC(=O)NCc3ccc(N)nc3C)c(=O)c2NC1=O | 310 | 
510 | 0.33 | CCC[C@@H]1Cc2cc(C)n(CC(=O)NCc3ccc(N)nc3C)c(=O)c2NC1=O | 180 | 
860 |  | Cc1nc(N)ccc1CNC(=O)Cn1c(C)cc2c(c1=O)NC(=O)[C@](C)(CC(C)C)C2 | 160 | AUC [6]: 2.97 µM·h; Tmax [7]: 0.5 h; Cmax [8]: 1370 nM; half-life [9]: 1.5 h
101000 |  | Cc1nc(N)ccc1CNC(=O)Cn1c(C)cc2c(c1=O)NC(=O)CC2 |  | 
420 |  | Cc1nc(N)ccc1CNC(=O)Cn1c(C)cc2c(c1=O)NC(=O)[C@H](CC1CCC1)C2 | 190 | concentration [10]: 596 nM; Activity [11]: 0
22000 | 36 | CCC[C@H]1Cc2cc(C)n(CC(=O)NCc3ccc(N)nc3C)c(=O)c2NC1=O |  | 
580 | 0.4 | Cc1nc(N)ccc1CNC(=O)Cn1c(C)cc2c(c1=O)NC(=O)[C@H](CC(C)C)C2 | 220 | AUC [6]: 0.75 µM·h; Tmax [7]: 1.17 h; Cmax [8]: 180 nM; concentration [10]: 255 nM; Activity [12]: 0; half-life [9]: 2.35 h
 |  | Cc1nc(N)ccc1CNC(=O)Cn1c(C)ccc(NS(=O)(=O)Cc2ccccc2)c1=O [L-374087] |  | AUC [6]: 4.42 µM·h; T1/2 [13]: 2.57 h

Compound | Ki [2] [nM] | Ki [3] [nM] | Concentration doubling APTT [1] [nM] | further results
Cc1nc(N)ccc1CNC(=O)Cn1c(C)cc2c(c1=O)NC(=O)[C@H](CC1CC1)C2 | 770 | 0.21 | 150 | concentration [4]: 185 nM; Activity [5]: 1
